From US9139524B2, “Fluorinated bridged spiro[2.4]heptane derivatives as ALX receptor agonists” (Actelion Pharmaceuticals Ltd., priority 2012, dated 2015)

Experiments:
[1] = target: T1, human ALX receptor (Homo sapiens, UniProt P25090); assay: Intracellular calcium measurements (FLIPR), ALX receptor agonistic activity; assay type: cell-based; details: HEK293-hALXR-Gα16 cells; values normalized to WKYMVm 10 nM; read-out: EC50 (agonistic activity with respect to the ALX receptor)
T1 construct: expressed in transfected cells; host or cells: HEK293 (HEK293-hALXR-Gα16)
T1 sequence (P25090 1-351): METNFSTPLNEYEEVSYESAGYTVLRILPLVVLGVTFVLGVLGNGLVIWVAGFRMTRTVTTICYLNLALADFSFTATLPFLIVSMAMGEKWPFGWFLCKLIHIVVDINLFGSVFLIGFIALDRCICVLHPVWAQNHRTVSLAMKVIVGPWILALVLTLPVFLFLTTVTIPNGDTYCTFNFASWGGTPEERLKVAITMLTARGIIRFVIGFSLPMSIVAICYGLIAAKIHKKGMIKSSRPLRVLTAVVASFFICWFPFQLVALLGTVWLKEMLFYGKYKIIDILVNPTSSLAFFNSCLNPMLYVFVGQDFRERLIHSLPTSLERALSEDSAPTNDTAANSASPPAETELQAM
Description: The ALX receptor agonistic activities of the compounds of formula (I) are determined in accordance with the following experimental method.
Cells expressing recombinant human ALX receptor and the G-protein Gα16 (HEK293-hALXR-Gα16) were grown to 80% confluency in Growing Medium (GM). Cells were detached from culture dishes with a cell dissociation buffer (Invitrogen, 13151-014), and collected by centrifugation at 1′000 rpm at rt for 5 min in Assay Buffer (AB) (equal parts of Hank's BSS (Gibco, 14065-049) and DMEM without Phenol Red (Gibco, 11880-028)). After 60 min incubation at 37° C. under 5% CO2 in AB supplemented with 1 μM Fluo-4 (AM) (Invitrogen, F14202) and 20 mM HEPES (Gibco, 15630-056), the cells were washed and resuspended in AB. They were then seeded onto 384-well FLIPR assay plates (Greiner, 781091) at 50′000 cells in 70 μl per well and sedimented by centrifugation at 1′000 rpm for 1 min. Stock solutions of test compounds were made up at a concentration of 10 mM in DMSO, and serially diluted in AB to concentrations required for activation dose response curves. WKYMVm (Phoenix Peptides) was used as a reference agonist. A FLIPR Tetra instrument (Molecular Devices) was operated according to the manufacturer's standard instructions, adding 4 μl of test compound dissolved at 10 mM in DMSO and diluted prior to the experiment in assay buffer to obtain the desired final concentration. Changes in fluorescence were monitored before and after the addition of test compounds at lex=488 nm and lem=540 nm. Emission peak values above base level after compounds addition were exported after base line subtraction. Values were normalized to high-level control (WKYMVm compound, 10 nM final concentration) after subtraction of the base line value (AB addition).

[2] = Determination of pharmacokinetic parameters in rats after single oral or intravenous administration; assay type: in vivo; details: Wistar, plasma, rat, p.o. 1 mg/kg; for bioavailability: oral, calculated with a reference AUC after iv administration of solutions at 1 mg/kg, read-out: F (bioavailability); for AUC: po, read-out: AUC (area under curve after p.o. administration)
Description: The goal of the study was to evaluate the pharmacokinetics of compounds after a single oral administration or after an intravenous route in normal, conscious rats.
• Anaesthesia: Wistar rats were pretreated with 0.03 mg/kg Buprenorphine s.c. (an analgesic-stock solution at 0.03 mg/ml) and 30 minutes later they were anaesthetized with a mixture of 90 mg/kg Ketamine and 10 mg/kg Xylazine i.p. or under Isoflurane inhalation anesthesia. • Rat preparation: The top of the head and the neck were shaved and disinfected with Merfen and Betadine. • Surgery: While under (isoflurane) anaesthesia, an incision was made above 1.5 cm at the top of the head (between the ears) in order to fix the anchor button. A second incision was made above 1.5-2 cm on the neck (near the right clavicle). A catheter (ID/DI: 0.508 mm, Ulrich Swiss) was tunnelled with a trocar under the skin and an access port was fixed with 4-0 silk. The catheter was then filled with a heparinized saline solution (100 Ul/ml), clamped with a hemostat to prevent loss of saline, and the wound was closed with tissue adhesive (3M Vetbond). Next, the jugular vein was isolated and ligated cranially with 4-0 silk, a second ligature, placed caudal to the first ligature, was not tightened. Using iridectomy scissors, a V-shaped hole was cut in the vein, and the catheter was gently pushed into the vessel. All ligatures were then tied around the vessel and the catheters. A NaCl-heparin 100 Ul flush was made to test the blood flow. The wound was then closed with tissue adhesive and a suture. Flush again. • Post operative care: After the operation each animal was housed separately in a small box with food (directly on the floor of the box) and water ad libitum and access to solid drink. One to two days were allowed for recovery from surgery prior to the experiment. The day following the operation, animals were flushed with NaCl-heparin 100 Ul/mL and blood collection tubes were prepared with 10 μl EDTA added to each tube. • Experiment: Tested compounds were given at 1 mg/kg orally and intravenously. The oral formulation was as a solution in Gelatine (98% of a 7.5% Gelatine solution in Water and 2% DMSO) and the intravenous formulation was a solution in water with pH adjustment or in cyclodextrine (5% DMSO, 95% HPBCD30% (w/v)). After application of the test-compound (p.o. or i.v.), blood samples ([…]) were taken at different times. The samples were immediately put in ice before being centrifuged (4° C., 8 min, 16000 g). The plasma was then aspirated and placed into a 96 well plate. The plate was kept at −20° C. until analysis could be performed. • Plasma concentration of the compound was determined using a LC-MS/MS method.

Structure (SMILES) | EC50 [1] [nM] | bioavailability [2] [%] | AUC [2] [ng·h/mL]
O=C(N[C@H]1CCNC[C@H]1F)[C@H]1[C@H](C(=O)NCc2ccc(Br)cc2F)[C@@H]2CC[C@H]1C21CC1 (mixture of isomers) [Example 4, (1S,2R,3R,4R)—N^2-(4-Bromo-2-fluorobenzyl)-N^3-(cis-3-fluoropiperidin-4-yl)spiro[bicyclo[2.2.1]heptane-7,1′-cyclopropane]-2,3-dicarboxamide] | 12.7 |  | 
O=C(N[C@@H]1CNC[C@@H]1F)[C@H]1[C@H](C(=O)NCc2ccc(Br)cc2F)[C@@H]2CC[C@H]1C21CC1 (mixture of isomers) [Example 5, (1S,2R,3R,4R)—N^2-(4-Bromo-2-fluorobenzyl)-N^3-(cis-4-fluoropyrrolidin-3-yl)spiro[bicyclo[2.2.1]heptane-7,1′-cyclopropane]-2,3-dicarboxamide] | 300 |  | 
O=C(N[C@@H]1CNC[C@H]1F)[C@H]1[C@H](C(=O)NCc2ccc(Br)cc2F)[C@@H]2CC[C@H]1C21CC1 (mixture of isomers) [Example 6, (1S,2R,3R,4R)—N^2-(4-Bromo-2-fluorobenzyl)-N^3-(trans-4-fluoropyrrolidin-3-yl)spiro[bicyclo[2.2.1]heptane-7,1′-cyclopropane]-2,3-dicarboxamide] | 4.5 |  | 
O=C(N[C@@H]1CCNC[C@H]1F)[C@H]1[C@H](C(=O)NCc2ccc(Br)cc2F)[C@@H]2CC[C@H]1C21CC1 (single isomer, unassigned; diastereoisomer 1) [Example 2] | 1.9 |  | 
O=C(N[C@@H]1CCNC[C@H]1F)[C@H]1[C@H](C(=O)NCc2ccc(Br)cc2F)[C@@H]2CC[C@H]1C21CC1 (single isomer, unassigned; diastereoisomer 2) [Example 3] | 2 | 12 | 49.9
O=C(NC1CCNCC1(F)F)[C@H]1[C@H](C(=O)NCc2ccc(Br)cc2F)[C@@H]2CC[C@H]1C21CC1 (stereo partly drawn) [Example 1, (1S,2R,3R,4R)—N^2-(4-Bromo-2-fluorobenzyl)-N^3-(3,3-difluoropiperidin-4-yl)spiro[bicyclo[2.2.1]heptane-7,1′-cyclopropane]-2,3-dicarboxamide] | 41 |  | 
O=C(NC1CCNCC1)[C@H]1[C@H](C(=O)NCc2ccc(Br)cc2F)[C@@H]2CC[C@H]1C21CC1 [Reference Example 2, (1S,2R,3R,4R)—N^2-(4-Bromo-2-fluorobenzyl)-N^3-(piperidin-4-yl)spiro[bicyclo[2.2.1]heptane-7,1′-cyclopropane]-2,3-dicarboxamide, reference compound] |  | 0.3 | 6.34
